The test deals with Cdc42 (Homo sapiens, UniProt P60953). The test can be described thus: equilibrium binding by flow cytometry on beads.
Sequence of Cdc42 (P60953 1-188): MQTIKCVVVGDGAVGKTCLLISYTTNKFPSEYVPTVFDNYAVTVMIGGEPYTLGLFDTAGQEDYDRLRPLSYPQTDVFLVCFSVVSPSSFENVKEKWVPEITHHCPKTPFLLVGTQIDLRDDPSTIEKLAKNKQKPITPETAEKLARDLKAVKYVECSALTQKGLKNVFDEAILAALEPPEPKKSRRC

Compound `Cc1cc(C)n2c1C=C1C=CC(CCC(=O)NCCNC(=O)OC3C(COP(=O)(O)OP(=O)(O)OP(=O)(O)O)OC(n4cnc5c(=O)[nH]c(N)nc54)C3O)=[N+]1[B-]2(F)F` (stereo not shown) [BODIPY-FL-GTP] displayed a Kd of 0.6 nM.

The values above are taken from article PMC4467469 (Methods in molecular biology (Clifton, N.J.), 2012).
